Key:
[1] = system: purified Lipase 3 from Aspergillus niger; experiment: p-Nitrophenol-acetate assay, determination of Km for purified Lipase 3; type: biochemical
Description: (§1) Lipase activity was determined colorimetrically using p-nitrophenyl acetate as a substrate. In a microtiter plate was added 10 μl of sample or blank then 250 μl of substrate was added (0.5 mg p-nitrophenyl acetate/ml of 50 mM phosphate buffer, pH 6.5). The microtiterplate was incubated for 5 min. at 30° C. and the absorbance at 405 nm was then read in a microplate reader.
A 60 ml sample of Grindlipase (Danisco A/S) a ferment of Aspergillus niger, pH 5.5 was first filtered through GF/B filter and then through 0.45 μm filter. The filtered sample was then desalted on a Superdex G25 SP column (430 ml, 22×5 cm) equilibrated in 20 mM triethanolamin, pH 7.3. Flow 5 ml/min. The total volume after desalting was 150 ml.
The desalted sample was applied to a Source Q30 anion exchange column (100 ml, 5×5 cm) equilibrated in 20 mM triethanolamine, pH 7.3. The column was washed with equilibration buffer until a stable baseline was obtained. Lipase activity was then eluted with a 420 ml linear gradient from 0 to 0.35 M NaCl in equilibration buffer, flow […]. Fractions of 10 ml were collected. […]
To the pool from anion exchange was added ammonium sulfate to 1 M and the sample was applied to a Source Phenyl HIC column (20 ml, 10 x 2 cm) equilibrated in 20 mM sodium-acetate (pH 5.5), 1M (NH4)2SO4. […] Fractions 33-41 were analyzed by SDS-PAGE and fraction 40 and 41 contained pure lipase. […]

commercial lipase #1646 = experiment: p-Nitrophenol-acetate assay, determination of Km for another commercial lipase (#1646); type: biochemical; conditions: pH 6.5, 50 mM phosphate buffer, 30° C., 405 nm; substrate 0.1 to 0.75 mg/ml; fit to non-competitive kinetics not accepted
Description: as §1
Kinetic data were fitted to v=VmaxS/(Km+S) where Vmax is maximum velocity, S is substrate concentration, and Km is the concentration giving half maximal rate (Michaelis constant), using the EZ-FIT curve-fitting microcomputer program [Perrella, (1988) EZ-FIT: A practical curve-fitting microcomputer program for the analysis of enzyme kinetic data on IBM-PC compatible computers. Anal. Biochem. 174: 437-447]. To determine Ki the data were fitted to the formulas for non-competitive, competitive, un-competitive and the model showing the best fit (non-competitive) were used to determine Ki. The program uses the Nelder-Mead simplex optimization of initial guesses followed by Marquardt nonlinear regression algorithm for least squares optimization. Run's statistic is used to determine if the fitted curve goes through the data points or whether a systematic departure from the curve exists. The fitted parameter values and standard error are tested for significance by the Student t test.

Structure (SMILES): CC(=O)Oc1ccc([N+](=O)[O-])cc1 [p-nitrophenyl acetate]
- Km for p-nitrophenyl acetate ([1]; pH 6.5, 50 mM phosphate buffer, 30° C., 405 nm, four levels of lipase inhibitor, fit to non-competitive model): 0.67 ± 0.04 mg/mL
- Km for lipase with respect to p-nitrophenyl acetate (in words) ([1]; under the conditions in the assay): higher than the maximum solubility for p-nitrophenyl acetate
- Km for p-nitrophenyl acetate (commercial lipase #1646): 2.0 ± 0.6 mg/mL

From patent publication US7355004B2, “Protein lipase inhibitor for flour and dough” (Danisco A/S, priority 2002, dated 2008)
